Measurements reported in US6812229B1, “Carbamate derivative and agricultural/horticultural fungicide” (Kumiai Chemical Industry Co., Ltd., priority 1999, dated 2004).

Tested on: Septoria nodorum
Assay: Test for preventive effect on Septoria leaf blotch of wheat
Type: in vivo
Conditions: wheat seedlings (Norin-61-go), two-leaf stage, 50 ppm active ingredient, 10 ml per pot, evaluated 10 days after inoculation with Septoria nodorum
Text: [table] 10 Wheat seeds (variety: Norin-61-go) were sown in each plastic pot having a diameter of 6 cm, and grown in a greenhouse. […] Then, the seedlings were inoculated with Septoria nodorum […] controlled in a greenhouse. 10 Days after the inoculation, the total diseased area of the first leaves in each pot was observed and evaluated on the basis of the standards shown in Table 21.

Row | SMILES | Evaluation (total diseased area of the first leaves)
1 | COC(=O)NCc1cc(C(C)=NOCc2cccc(Cl)c2)ccc1Cl [A-208] | B (Diseased area of less than 5%)
2 | COC(=O)NCc1cc(C(C)=NOC(C)c2ccccc2)ccc1Cl (centres unmarked) [A-216] | A (No diseased area)
3 | COC(=O)NCc1cc(C(C)=NOCc2ccccc2OC(F)(F)F)ccc1Cl [A-217] | A (No diseased area)
4 | COC(=O)NCc1cc(C(C)=NOCc2cccc(OC(F)(F)F)c2)ccc1Cl [A-218] | A (No diseased area)
5 | COC(=O)NCc1cc(C(C)=NOCc2ccccc2C#N)ccc1Cl [A-220] | A (No diseased area)
6 | COC(=O)NCc1cc(C(C)=NOCC2OCCO2)ccc1Cl [A-241] | B (Diseased area of less than 5%)
7 | COC(=O)NCc1cc(C(C)=NOCc2ccc3ccccc3c2)ccc1Cl [A-248] | B (Diseased area of less than 5%)
8 | CCCCCCCON=C(C)c1ccc(Cl)c(CNC(=O)OC)c1 [A-251] | A (No diseased area)
9 | COC(=O)NCc1cc(C(C)=NOCc2cccc(Cl)c2Cl)ccc1Cl [A-252] | A (No diseased area)
10 | COC(=O)NCc1cc(C(C)=NOCc2cc(Cl)ccc2Cl)ccc1Cl [A-254] | A (No diseased area)
11 | COC(=O)NCc1cc(C(C)=NOCc2ccc(Cl)c(Cl)c2)ccc1Cl [A-256] | A (No diseased area)
12 | COC(=O)NCc1cc(C(C)=NOCc2cc(Cl)cc(Cl)c2)ccc1Cl [A-257] | A (No diseased area)
13 | COC(=O)NCc1cc(C(C)=NOCc2cc(C)ccc2C)ccc1Cl [A-258] | B (Diseased area of less than 5%)
14 | COC(=O)NCc1cc(C(C)=NOCc2cccc([N+](=O)[O-])c2)ccc1Cl [A-266] | B (Diseased area of less than 5%)
15 | COC(=O)NCc1cc(C(C#N)=NOCCc2ccccc2)ccc1Cl [A-277] | B (Diseased area of less than 5%)
16 | COC(=O)NCc1cc(C(C)=NOCc2cccc(C(=O)OC)c2)ccc1Cl [A-278] | B (Diseased area of less than 5%)
17 | COC(=O)NCc1cc(C(C)=NOCc2cc(C)cc(C)c2)ccc1Cl [A-279] | B (Diseased area of less than 5%)
18 | COC(=O)NCc1cc(C(C)=NOCc2cccc(Cl)n2)ccc1Cl [A-285] | A (No diseased area)
19 | CCC(=NOCC(C)=NOC)c1ccc(Cl)c(CNC(=O)OC)c1 [A-293] | A (No diseased area)
20 | COC(=O)NCc1cc(C(C)=NOCc2ccccc2Cl)ccc1C [A-294] | B (Diseased area of less than 5%)
21 | COC(=O)NCc1cc(C(C)=NOCc2ccccc2C)ccc1C [A-295] | B (Diseased area of less than 5%)
22 | CCC(=NOCc1ccccc1Cl)c1ccc(Cl)c(CNC(=O)OC)c1 [A-296] | A (No diseased area)
23 | CCC(=NOCc1ccccc1C(F)(F)F)c1ccc(Cl)c(CNC(=O)OC)c1 [A-297] | B (Diseased area of less than 5%)
24 | CCC(=NOCc1ccccc1)c1ccc(Cl)c(CNC(=O)OC)c1 [A-303] | A (No diseased area)
25 | CCC(=NOCc1cccc(OC)c1)c1ccc(Cl)c(CNC(=O)OC)c1 [A-304] | A (No diseased area)
26 | CCC(=NOCc1ccccn1)c1ccc(Cl)c(CNC(=O)OC)c1 [A-305] | A (No diseased area)
